Laboratory results from patent US12503707B2, “Methods, plants and compositions for overcoming nutrient suppression of mycorrhizal symbiosis” (Cambridge Enterprise Limited, priority 2020, dated 2025).
Blank lines part the entries; values can stand above or below the compound they belong to.

How the values were obtained:
[1] = system: M. truncatula root epidermal cells; assay: Nuclear calcium imaging after CO/LCO treatment; type: cell-based, Medicago truncatula; conditions: lateral roots; −N−P and +N+P conditions
Method: For calcium analyses M. truncatula seedlings were grown on Buffered Nodulation Media (BNM) agar with 100 nM Aminoethoxyvinylglycine (AVG; Sigma-Aldrich) until lateral roots emerged (FIGS. 1A-1B). […] The lateral roots were fixed in a small chamber made on a cover glass using vacuum grease, with 500 μl of BNM buffer. The roots were then treated with COs (CO4 or CO8), LCOs (non-sulfated LCO (NS-LCO) or a LCO derived from Sinorhizobium meliloti (SmLCO)), at the concentrations indicated in FIGS. 1A-1B. Recordings were collected on an inverted epifluorescence microscope (model TE2000; Nikon). Yellow cameleon YC3.6 was excited with an 458-nm laser and imaged using emission filters 476-486 nm for CFP and 529-540 nm for YFP. The calcium images were collected every 5 seconds with 1 second exposure and analyzed using Metafluor (Molecular Devices). Calcium traces used the intensity ratio of YFP to CFP. For better visualization of calcium signals, the traces were flattened to a single axis by subtracting the values with moving average as the following formula:
[formula] Where Sf is the flattened signal, So is the original signal, and MA is the moving average of the value. For each element i, MA is calculated as:
[formula] where m is the arbitrary number of points to calculate the average, w=[m/2] and xj is the signal at point j. M. truncatula Gene Expression

[2] = system: R. irregularis colonization of H. vulgare; assay: Mycorrhizal colonization assay with R. irregularis; type: in vivo, Hordeum vulgare; conditions: 0.1 μM GR24 twice a week
Method: FIGS. 14A-14D provide the effects of treating H. vulgare plants with a strigolactone or with both a strigolactone and a CEP peptide. […] Plants were grown under high nitrate and high phosphate (5 mM NO3^− and 0.5 mM PO4^−) and cells were treated with 10^−7 M SmLCO. The top trace represents cells without any additional treatment, the middle trace represents cells that were pre-treated with 1 μM 5-deoxystrigol, and the bottom trace represents cells that were pre-treated with 1 μM 5-deoxystrigol and 1 μM CEP3. The scale bar indicates a span of 10 minutes, and the fractions indicate the number of cells that responded over the total number of cells analyzed. FIGS. 14B-14C provide the level of mycorrhizal colonization of H. vulgare when treated with the synthetic strigolactone analog GR24 under different nutrient conditions, as determined in two separate experiments. In FIG. 14B, colonization was measured 7 weeks post inoculation, and the x-axis indicates the nutrient conditions tested, and whether the plants were treated with GR24. […] In FIG. 14C, colonization was measured 6 weeks post inoculation, and the x-axis indicates the nutrient conditions tested, and whether the plants were treated with GR24. […] In FIGS. 14B-14C, the y-axis represents the percentage of roots colonized by mycorrhizal fungi, and the shading of each bar represents the fungal structure quantified. […]

[3] = system: M. truncatula LysM receptor-like kinase (LysM RLK) genes; assay: LysM RLK gene expression by qRT-PCR after GR24 and/or TIS108 treatment; type: in vivo, Medicago truncatula; conditions: BNM plates 4 days
Method: FIGS. 24A-24E show the effects of nutrient starvation and strigolactone and/or karrikin treatment on M. truncatula RLK gene expression levels. […] As indicated from left to right above the heat map, M. truncatula was grown under limiting nitrate (−N, 0 mM NO3^− and 3.75 mM PO4^−), limiting phosphate (−P, 5 mM NO3^− and 0.0075 mM PO4^−), or limiting nitrate and phosphate (−N−P, 0 mM NO3^− and 0.0075 mM PO4^−). The relative expression level of each condition is normalized to expression when plants were grown under replete nitrate and replete phosphate (+N+P, 5 mM NO3^− and 3.75 mM PO4^−). As indicated from left to right below the heatmap, expression was measured either 5, 10, or 15 days after germination (“DAG”). The color scale indicates the relative expression levels, with black representing the lowest expression and light grey representing the highest expression. FIGS. 24B-24E show expression of M. truncatula genes after seedlings were grown on BNM plates for 4 days, and then treated with either DMSO (mock), 0.1 μM synthetic strigolactone analog GR24, 1 μM strigolactone-biosynthesis inhibitor TIS108, or both (0.1 μM GR24 and 1 μM TIS108) for 24 hours, as indicated on the x-axis. […] In each of FIGS. 24B-24E gene expression was determined by RT-qPCR, relative expression levels is on the y-axis, and the asterisks indicate the relative level of statistical significance as determined by a Student's t-test.
Gene expression was measured by qRT-PCR (FIGS. 2A-2B). Plants were grown on modified BNM plates (described above) with 100 nM AVG for four days, the plants were then carefully transferred to liquid BNM with the appropriate nutrient concentrations along with COs, PGN, flg22 and SmLCO, at a final concentration of 10^−7 M COs, 10^−7 M flg22, 0.4 mg/ml PGN and 10^−8 M SmLCO. After incubation for 6 h, plant roots were harvested and frozen in liquid nitrogen. […] An aliquot of each total RNA sample was used to determine RNA concentration and purity assessed on the NanoDrop ND-1000 spectral photometer (Peglab, Erlangen, Germany). RNA integrity was analyzed on the 2100 Bioanalyzer using RNA 6000 Nano LabChip Kits (Agilent Technologies). […] Gene expression was determined by an ABI 7500 using a SYBR green PCR master mix (Bio-Rad). […] Expression data were analyzed from the average of threshold cycle (CT) value, using an M. truncatula endogenous Histone 2A (H2A) gene as reference and fold induction calculated for treatment of elicitors relative to treatment with DMSO. […]
Gene expression was measured by RNA-seq. […] M. truncatula RLK gene expression levels were measured by qRT-PCR (FIGS. 24B-24E), as described in Example 1.

[4] = then 24 hours, 0.1 μM GR24, 1 μM TIS108

Compound: CC(=O)N[C@H]1[C@H](O[C@H]2[C@H](O)[C@@H](NC(C)=O)[C@H](O[C@H]3[C@H](O)[C@@H](NC(C)=O)[C@H](O[C@H]4[C@H](O)[C@@H](NC(C)=O)C(O)O[C@@H]4CO)O[C@@H]3CO)O[C@@H]2CO)O[C@H](CO)[C@@H](O[C@@H]2O[C@H](CO)[C@@H](O[C@@H]3O[C@H](CO)[C@@H](O[C@@H]4O[C@H](CO)[C@@H](O[C@@H]5O[C@H](CO)[C@@H](O)[C@H](O)[C@H]5NC(C)=O)[C@H](O)[C@H]4NC(C)=O)[C@H](O)[C@H]3NC(C)=O)[C@H](O)[C@H]2NC(C)=O)[C@@H]1O (some centres unmarked) [CO8]
nuclear symbiotic calcium oscillations (Cells spiking) [1]: promoted nuclear symbiotic oscillations

Compound: CC(=O)N[C@H]1[C@H](O[C@H]2[C@H](O)[C@@H](NC(C)=O)C(O)O[C@@H]2CO)O[C@H](CO)[C@@H](O[C@@H]2O[C@H](CO)[C@@H](O[C@@H]3O[C@H](CO)[C@@H](O)[C@H](O)[C@H]3NC(C)=O)[C@H](O)[C@H]2NC(C)=O)[C@@H]1O (some centres unmarked) [CO4]
nuclear symbiotic calcium oscillations (Cells spiking) [1]: promoted nuclear symbiotic oscillations

MtKUF1 expression compared to mock treatment [3, 4]: significantly increased
MtLYK8 expression compared to mock treatment [3, 4]: significantly increased
MtLYK10 expression compared to mock treatment [3, 4]: significantly increased
Compound: CC1=C[C@H](O/C=C2/C(=O)O[C@@H]3c4ccccc4C[C@H]23)OC1=O [GR24]
promotion of mycorrhizal colonization ([2]; 7 weeks post inoculation, no inhibitory effect of high phosphate seen): could not be observed
mycorrhizal colonization ([2]; high phosphate (500 μM) and low nitrate (0.5 mM), 6 weeks post inoculation): promoted mycorrhizal colonization

LysM RLK gene expression compared to mock treatment ([3]; then 1 μM TIS108 for 24 hours): either the same or lower
Compound: O=C(c1ccccc1)C(CCCCOc1ccccc1)n1cncn1 (centres unmarked) [TIS108]
